From patent US20210109103A1, “METHODS AND KITS FOR DETECTING O-GlcNAc SITES USING B3GALNT2 AND OGT” (BIO-TECHNE CORPORATION, priority 2018, published 2021)

Tests used:
[1] = biological target: T1, recombinant human B3GALNT2 (Homo sapiens, UniProt Q8NCR0); test: phosphatase coupled universal glycosyltransferase assay, B3GALNT2; assay type: biochemical; details: 0.4 mM nucleotide sugar donor, 2 mM acceptor benzyl-β-GlcNAc, 1 μg B3GALNT2, 37° C., 20 minutes; compared with UDP-GalNAc (FIG. 8)
T1 construct: purchased R&D Systems and/or Bio-Techne
T1 sequence (Q8NCR0 1-500): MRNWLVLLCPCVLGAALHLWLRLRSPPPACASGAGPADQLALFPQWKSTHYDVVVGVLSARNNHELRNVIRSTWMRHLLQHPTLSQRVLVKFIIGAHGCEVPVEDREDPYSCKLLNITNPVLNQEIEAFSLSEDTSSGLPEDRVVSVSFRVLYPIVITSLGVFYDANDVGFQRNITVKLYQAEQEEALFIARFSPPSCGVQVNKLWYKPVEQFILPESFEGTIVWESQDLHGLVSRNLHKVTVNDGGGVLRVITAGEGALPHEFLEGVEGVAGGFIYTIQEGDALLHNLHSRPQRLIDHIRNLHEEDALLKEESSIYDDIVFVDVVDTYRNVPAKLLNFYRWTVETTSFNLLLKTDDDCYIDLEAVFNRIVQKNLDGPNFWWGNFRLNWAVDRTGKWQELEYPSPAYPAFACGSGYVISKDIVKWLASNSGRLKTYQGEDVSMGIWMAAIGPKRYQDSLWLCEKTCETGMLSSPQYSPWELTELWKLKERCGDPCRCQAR
Method: (§1) Using a phosphatase coupled universal glycosyltransferase assay, an analysis of the activity of B3GALNT2 and OGT on regular nucleotide sugar as compared to azido nucleotide sugar was performed. For the B3GALNT2 assay, 0.4 mM nucleotide sugar donor (UDP-GalNAc or UDP-GalNAz), 2 mM of acceptor substrate benzyl-β-GlcNAc, and 0.1 μg of coupling phosphatase 1 were combined with 1 μg of B3GALNT2 in 50 μL of assay buffer of 25 mM Tris at pH 7.5, 10 mM MnCl2 and 10 mM CaCl2 at 37° C. for 20 minutes. For the OGT assay, 0.4 mM nucleotide sugar donor (UDP-GlcNAc or UDP-GlcNAz), 0.2 mM of acceptor OGT substrate, and 0.1 μg of coupling phosphatase 1 were combined with 2.5 μg of OGT in 50 μL of assay buffer of 25 mM Tris at pH 7.5, 10 mM MnCl2 and 10 mM CaCl2 at 37° C. for 20 minutes. Both assays were performed according to the Universal Glycosyltransferase Assay Kit from R&D Systems®. FIG. 8 is a bar graph of the activity of B3GALNT2 and OGT on regular nucleotide sugars compared to azido nucleotide sugars.

[2] = biological target: T2, recombinant human O-GlcNAc transferase (OGT) (Homo sapiens, UniProt O15294); test: phosphatase coupled universal glycosyltransferase assay, OGT; assay type: biochemical; details: 0.4 mM nucleotide sugar donor, 0.2 mM acceptor OGT substrate, 2.5 μg OGT, 37° C., 20 minutes (FIG. 8)
T2 construct: purchased R&D Systems and/or Bio-Techne
T2 sequence (O15294 1-1046): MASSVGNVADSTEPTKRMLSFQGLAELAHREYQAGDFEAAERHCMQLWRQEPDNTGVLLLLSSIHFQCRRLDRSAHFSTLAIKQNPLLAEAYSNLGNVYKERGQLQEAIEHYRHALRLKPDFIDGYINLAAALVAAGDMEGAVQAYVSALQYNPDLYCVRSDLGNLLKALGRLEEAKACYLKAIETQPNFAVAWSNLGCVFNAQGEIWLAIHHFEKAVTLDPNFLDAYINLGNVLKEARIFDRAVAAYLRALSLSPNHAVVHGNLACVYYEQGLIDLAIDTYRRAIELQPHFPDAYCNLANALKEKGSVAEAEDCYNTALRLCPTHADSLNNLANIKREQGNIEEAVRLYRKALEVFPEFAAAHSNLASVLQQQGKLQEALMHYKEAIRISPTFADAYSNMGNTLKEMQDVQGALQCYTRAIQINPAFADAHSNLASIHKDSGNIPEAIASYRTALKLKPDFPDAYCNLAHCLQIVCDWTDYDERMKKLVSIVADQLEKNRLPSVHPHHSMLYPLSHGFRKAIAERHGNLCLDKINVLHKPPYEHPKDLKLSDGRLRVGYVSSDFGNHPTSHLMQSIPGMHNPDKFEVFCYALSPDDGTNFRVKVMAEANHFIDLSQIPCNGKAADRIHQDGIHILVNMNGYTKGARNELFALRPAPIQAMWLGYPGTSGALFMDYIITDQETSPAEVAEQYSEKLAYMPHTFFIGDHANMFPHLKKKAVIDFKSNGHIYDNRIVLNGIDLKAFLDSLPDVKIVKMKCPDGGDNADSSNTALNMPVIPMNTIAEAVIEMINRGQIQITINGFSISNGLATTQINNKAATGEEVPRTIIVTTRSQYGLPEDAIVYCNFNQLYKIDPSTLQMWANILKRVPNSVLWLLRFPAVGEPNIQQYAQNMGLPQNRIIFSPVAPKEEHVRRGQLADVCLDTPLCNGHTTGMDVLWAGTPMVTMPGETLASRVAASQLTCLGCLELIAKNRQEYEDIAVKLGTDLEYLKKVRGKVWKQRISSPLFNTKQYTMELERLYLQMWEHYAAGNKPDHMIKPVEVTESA
Method: as §1

activity of OGT on azido nucleotide sugar compared to regular nucleotide sugar [2]	SMILES	activity of B3GALNT2 on azido nucleotide sugar compared to regular nucleotide sugar [1]
	[N-]=[N+]=NCC(=O)N[C@H]1[C@@H](OP(=O)(O)OP(=O)(O)OC[C@H]2O[C@@H](n3ccc(=O)[nH]c3=O)[C@H](O)[C@@H]2O)O[C@H](CO)[C@H](O)[C@@H]1O [UDP-GalNAz]	more active on UDP-GalNAz than on UDP-GalNAc
equally active	CC(=O)N[C@H]1[C@@H](OP(=O)(O)OP(=O)(O)OC[C@H]2O[C@@H](n3ccc(=O)[nH]c3=O)[C@H](O)[C@@H]2O)O[C@H](CO)[C@@H](O)[C@@H]1O [UDP-GlcNAc]	
equally active	[N-]=[N+]=NCC(=O)N[C@H]1[C@@H](OP(=O)(O)OP(=O)(O)OC[C@H]2O[C@@H](n3ccc(=O)[nH]c3=O)[C@H](O)[C@@H]2O)O[C@H](CO)[C@@H](O)[C@@H]1O [UDP-GlcNAz]	
